From patent publication US20240116985A1, “STAPLED PEPTIDES AND METHODS THEREOF” (priority 2020, published 2024)

Molecular target: T1, full-length beta-Catenin (Uniprot ID P35222) (Homo sapiens, UniProt P35222)
T1 construct: 10 nM full-length beta-Catenin (Uniprot ID P35222)
T1 sequence (P35222 1-781): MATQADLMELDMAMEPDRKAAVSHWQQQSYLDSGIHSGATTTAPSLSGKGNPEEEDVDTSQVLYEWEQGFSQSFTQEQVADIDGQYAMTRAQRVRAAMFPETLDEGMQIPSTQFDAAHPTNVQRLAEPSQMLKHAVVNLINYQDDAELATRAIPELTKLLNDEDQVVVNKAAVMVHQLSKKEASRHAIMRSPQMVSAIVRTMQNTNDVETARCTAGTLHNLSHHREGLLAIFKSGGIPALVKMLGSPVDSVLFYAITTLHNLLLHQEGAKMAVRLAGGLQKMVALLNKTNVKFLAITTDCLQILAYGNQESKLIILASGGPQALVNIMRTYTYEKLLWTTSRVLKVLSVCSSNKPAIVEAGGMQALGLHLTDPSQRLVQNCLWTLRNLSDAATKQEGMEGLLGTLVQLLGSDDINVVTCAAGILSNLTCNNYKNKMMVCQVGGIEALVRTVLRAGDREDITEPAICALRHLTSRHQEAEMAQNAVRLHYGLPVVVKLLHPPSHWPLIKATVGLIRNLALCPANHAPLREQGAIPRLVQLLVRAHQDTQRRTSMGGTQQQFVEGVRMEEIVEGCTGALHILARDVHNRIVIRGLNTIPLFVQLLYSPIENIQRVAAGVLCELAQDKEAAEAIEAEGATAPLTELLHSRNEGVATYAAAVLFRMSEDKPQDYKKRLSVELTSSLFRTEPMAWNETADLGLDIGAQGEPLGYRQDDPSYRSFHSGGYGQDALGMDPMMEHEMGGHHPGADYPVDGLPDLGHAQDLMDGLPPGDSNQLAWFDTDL
Assay: Fluorescence polarization IC50 (beta-catenin / 5FAM-TCF4 10-53 competition)
Format: binding
Conditions: fluorescence polarization; read-out: beta-Catenin FP IC50

| Structure (SMILES) | IC50 [nM] |
| --- | --- |
| CC(=O)N1CCC[C@]12CC=CCCCC1(CCCC=CCCCOC(=O)N3CC[C@@](C(=O)N[C@@H](Cc4ccsc4)C(=O)N[C@@H](Cc4csc5ccccc45)C(=O)N[C@@H](Cc4c[nH]c5ccccc45)C(N)=O)(C3)NC(=O)[C@H](CC(N)=O)NC(=O)[C@H](Cc3ccccc3)NC(=O)[C@H](C)NC(=O)C(C)(C)NC(=O)[C@H]([C@@H](C)O)NC(=O)[C@H](CC(N)=O)NC1=O)NC(=O)[C@H](CC(C)(C)C)NC(=O)[C@H](CC(=O)O)NC2=O (stereo partly drawn) [I-2481, Ac-PL3-Asp-Npg-B5-Asn-Thr-Aib-Ala-Phe-Asn-PyrS2-3Thi-BztA-Trp-NH2] | 754 |
| CC(=O)N1CCC[C@]12CC=CCCCC1(CCCC=CCCCOC(=O)N3CC[C@@](C(=O)N[C@@H](Cc4ccsc4)C(=O)N[C@@H](Cc4csc5ccccc45)C(=O)N[C@@H](CCC(N)=O)C(N)=O)(C3)NC(=O)[C@H](CC(C)C)NC(=O)[C@H](Cc3ccccc3)NC(=O)[C@H](C)NC(=O)[C@H](C)NC(=O)[C@H](Cn3cc(CC4(C(=O)O)CC4)nn3)NC(=O)[C@H](CC(=O)O)NC1=O)NC(=O)[C@H](CC(C)(C)C)NC(=O)[C@H](CC(=O)O)NC2=O (stereo partly drawn) [I-2482, Ac-PL3-Asp-Npg-B5-Asp-[CH2CCpCO2H]TriAzDap-Ala-Ala-Phe-Leu-PyrS2-3Thi-BztA-Gln-NH2] | 5 |
| CC(=O)N1CCC[C@]12CC=CCCCC1(CCCC=CCCCOC(=O)N3CC[C@@](C(=O)N[C@@H](Cc4ccsc4)C(=O)N[C@@H](Cc4csc5ccccc45)C(=O)N[C@@H](CCC(N)=O)C(N)=O)(C3)NC(=O)[C@H](CC(C)C)NC(=O)[C@H](Cc3ccccc3)NC(=O)[C@H](C)NC(=O)[C@H](C)NC(=O)[C@H](Cn3cc(CC4(C(=O)O)CCCCC4)nn3)NC(=O)[C@H](CC(=O)O)NC1=O)NC(=O)[C@H](CC(C)(C)C)NC(=O)[C@H](CC(=O)O)NC2=O (stereo partly drawn) [I-2483, Ac-PL3-Asp-Npg-B5-Asp-[CH2CChCO2H]TriAzDap-Ala-Ala-Phe-Leu-PyrS2-3Thi-BztA-Gln-NH2] | 5 |
| CC(=O)N1CCC[C@]12CC=CCCCC1(CCCC=CCCCOC(=O)N3CC[C@@](C(=O)N[C@@H](Cc4ccccc4)C(=O)N[C@@H](Cc4csc5ccccc45)C(=O)N[C@@H](CC(=O)N4CCOCC4)C(N)=O)(C3)NC(=O)[C@H](CC(C)C)NC(=O)[C@H](Cc3ccccc3)NC(=O)[C@H](C)NC(=O)[C@H](CCO)NC(=O)[C@H](CCC(N)=O)NC(=O)[C@H](CC(=O)O)NC1=O)NC(=O)[C@H](CC1CCCCC1)NC(=O)[C@H](CC(N)=O)NC2=O (stereo partly drawn) [I-2498, Ac-PL3-Asn-Cha-B5-Asp-Gln-Hse-Ala-Phe-Leu-PyrS2-Phe-BztA-MorphAsn-NH2] | 449 |
| CC(=O)N1CCC[C@]12CC=CCCCC1(CCCC=CCCCOC(=O)N3CC[C@@](C(=O)N[C@@H](Cc4ccccc4)C(=O)N[C@@H](Cc4csc5ccccc45)C(=O)N[C@@H](CC(=O)N4CCOCC4)C(N)=O)(C3)NC(=O)[C@H](CC(C)C)NC(=O)[C@H](Cc3ccccc3)NC(=O)[C@H](C)NC(=O)[C@H]([C@@H](C)O)NC(=O)[C@H](CCC(N)=O)NC(=O)[C@H](CC(=O)O)NC1=O)NC(=O)[C@H](CC1CCCCC1)NC(=O)[C@H](CC(N)=O)NC2=O (stereo partly drawn) [I-2503, Ac-PL3-Asn-Cha-B5-Asp-Gln-Thr-Ala-Phe-Leu-PyrS2-Phe-BztA-MorphAsn-NH2] | 1310 |
| CC(=O)N1CCC[C@]12CC=CCCCCC1(CCCCC=CCOC(=O)N3CC[C@@](C(=O)N[C@@H](Cc4ccccc4C(F)(F)F)C(=O)N[C@@H](Cc4csc5ccccc45)C(=O)N[C@@H](CCC(N)=O)C(N)=O)(C3)NC(=O)[C@H](CC(C)C)NC(=O)[C@H](Cc3ccccc3)NC(=O)[C@H](C)NC(=O)[C@H](C)NC(=O)[C@H](Cc3cccc(C(=O)O)c3)NC(=O)[C@H](CC(=O)O)NC1=O)NC(=O)[C@H](CC(C)(C)C)NC(=O)[C@H](CC(=O)O)NC2=O (stereo partly drawn) [I-2505, Ac-PL3-Asp-Npg-B6-Asp-3COOHF-Ala-Ala-Phe-Leu-PyrS-2F3MeF-BztA-Gln-NH2] | 687 |
| CC(=O)N1CCC[C@]12CC=CCCCCC1(CCCCC=CCOC(=O)N3CC[C@@](C(=O)N[C@@H](Cc4ccccc4C(F)(F)F)C(=O)N[C@@H](Cc4csc5ccccc45)C(=O)N[C@@H](C)C(N)=O)(C3)NC(=O)[C@H](CC(C)C)NC(=O)[C@H](Cc3ccccc3)NC(=O)[C@H](C)NC(=O)[C@H](CCC(N)=O)NC(=O)[C@H](Cc3cccc(C(=O)O)c3)NC(=O)[C@H](CC(=O)O)NC1=O)NC(=O)[C@H](CC(C)(C)C)NC(=O)[C@H](CC(=O)O)NC2=O (stereo partly drawn) [I-2506, Ac-PL3-Asp-Npg-B6-Asp-3COOHF-Gln-Ala-Phe-Leu-PyrS-2F3MeF-BztA-Ala-NH2] | 332 |
| CC(=O)N1CCC[C@]12CC=CCCCCC1(CCCCC=CCOC(=O)N3CC[C@@](C(=O)N[C@@H](Cc4ccccc4C(F)(F)F)C(=O)N[C@@H](Cc4csc5ccccc45)C(=O)N[C@@H](C)C(N)=O)(C3)NC(=O)[C@H](CC(C)C)NC(=O)[C@H](Cc3ccccc3)NC(=O)[C@H](C)NC(=O)[C@H](CCC(N)=O)NC(=O)[C@H](Cc3cccc(C(=O)O)c3)NC(=O)[C@H](CC(=O)O)NC1=O)NC(=O)[C@H](CC(C)(C)C)NC(=O)[C@H](CC(=O)O)NC2=O (stereo partly drawn) [I-2507, Ac-PL3-Asp-Npg-B6-Asp-3COOHF-Gln-Ala-Phe-Leu-PyrS-2F3MeF-BztA-Ala-NH2] | 168 |
| CC(=O)N1CCC[C@]12CC=CCCCCC1(CCCCC=CCCOC(=O)N3CC[C@@](C(=O)N[C@@H](Cc4ccccc4C(F)(F)F)C(=O)N[C@@H](Cc4csc5ccccc45)C(=O)N[C@@H](CCC(N)=O)C(N)=O)(C3)NC(=O)[C@H](CC(C)C)NC(=O)[C@H](Cc3ccccc3)NC(=O)[C@H](C)NC(=O)[C@H](C)NC(=O)[C@H](Cc3cccc(C(=O)O)c3)NC(=O)[C@H](CC(=O)O)NC1=O)NC(=O)[C@H](CC(C)(C)C)NC(=O)[C@H](CC(=O)O)NC2=O (stereo partly drawn) [I-2509, Ac-PL3-Asp-Npg-B6-Asp-3COOHF-Ala-Ala-Phe-Leu-PyrS1-2F3MeF-BztA-Gln-NH2] | 17 |
| CC(=O)N1CCC[C@]12CC=CCCCCC1(CCCCC=CCCCOC(=O)N3CC[C@@](C(=O)N[C@@H](Cc4ccccc4C(F)(F)F)C(=O)N[C@@H](Cc4csc5ccccc45)C(=O)N[C@@H](CCC(N)=O)C(N)=O)(C3)NC(=O)[C@H](CC(C)C)NC(=O)[C@H](Cc3ccccc3)NC(=O)[C@H](C)NC(=O)[C@H](C)NC(=O)[C@H](Cc3cccc(C(=O)O)c3)NC(=O)[C@H](CC(=O)O)NC1=O)NC(=O)[C@H](CC(C)(C)C)NC(=O)[C@H](CC(=O)O)NC2=O (stereo partly drawn) [I-2511, Ac-PL3-Asp-Npg-B6-Asp-3COOHF-Ala-Ala-Phe-Leu-PyrS2-2F3MeF-BztA-Gln-NH2] | 566 |
| CC(=O)N1CCC[C@]12CC=CCCCCC1(CCCCC=CCCCOC(=O)N3CC[C@@](C(=O)N[C@@H](Cc4ccccc4C(F)(F)F)C(=O)N[C@@H](Cc4csc5ccccc45)C(=O)N[C@@H](CCC(N)=O)C(N)=O)(C3)NC(=O)[C@H](CC(C)C)NC(=O)[C@H](Cc3ccccc3)NC(=O)[C@H](C)NC(=O)[C@H](C)NC(=O)[C@H](Cc3cccc(C(=O)O)c3)NC(=O)[C@H](CC(=O)O)NC1=O)NC(=O)[C@H](CC(C)(C)C)NC(=O)[C@H](CC(=O)O)NC2=O (stereo partly drawn) [I-2512, Ac-PL3-Asp-Npg-B6-Asp-3COOHF-Ala-Ala-Phe-Leu-PyrS2-2F3MeF-BztA-Gln-NH2] | 245 |
| CC(=O)N1CCC[C@]12CC=CCCCCC1(CCCCC=CCCCOC(=O)N3CC[C@@](C(=O)N[C@@H](Cc4ccccc4C(F)(F)F)C(=O)N[C@@H](Cc4csc5ccccc45)C(=O)N[C@@H](CCC(N)=O)C(N)=O)(C3)NC(=O)[C@H](CC(C)C)NC(=O)[C@H](Cc3ccccc3)NC(=O)[C@H](C)NC(=O)[C@H](C)NC(=O)[C@H](Cc3cccc(C(=O)O)c3)NC(=O)[C@H](CC(=O)O)NC1=O)NC(=O)[C@H](CC(C)(C)C)NC(=O)[C@H](CC(=O)O)NC2=O (stereo partly drawn) [I-2514, Ac-PL3-Asp-Npg-B6-Asp-3COOHF-Ala-Ala-Phe-Leu-PyrS2-2F3MeF-BztA-Gln-NH2] | 74 |
| CC(=O)N1CCC[C@]12CC=CCCCCC1(CCCCC=CCCCOC(=O)N3CC[C@@](C(=O)N[C@@H](Cc4ccccc4C(F)(F)F)C(=O)N[C@@H](Cc4csc5ccccc45)C(=O)N[C@@H](C)C(N)=O)(C3)NC(=O)[C@H](CC(C)C)NC(=O)[C@H](Cc3ccccc3)NC(=O)[C@H](C)NC(=O)[C@H](CCC(N)=O)NC(=O)[C@H](Cc3cccc(C(=O)O)c3)NC(=O)[C@H](CC(=O)O)NC1=O)NC(=O)[C@H](CC(C)(C)C)NC(=O)[C@H](CC(=O)O)NC2=O (stereo partly drawn) [I-2516, Ac-PL3-Asp-Npg-B6-Asp-3COOHF-Gln-Ala-Phe-Leu-PyrS2-2F3MeF-BztA-Ala-NH2] | 209 |
| CC(=O)N1CCC[C@]12CC=CCCCCC1(CCCCC=CCCOC(=O)N3CC[C@@](C(=O)N[C@@H](Cc4ccccc4C(F)(F)F)C(=O)N[C@@H](Cc4csc5ccccc45)C(=O)N[C@@H](C)C(N)=O)(C3)NC(=O)[C@H](CC(C)C)NC(=O)[C@H](Cc3ccccc3)NC(=O)[C@H](C)NC(=O)[C@H](CCC(N)=O)NC(=O)[C@H](Cc3cccc(C(=O)O)c3)NC(=O)[C@H](CC(=O)O)NC1=O)NC(=O)[C@H](CC(C)(C)C)NC(=O)[C@H](CC(=O)O)NC2=O (stereo partly drawn) [I-2519, Ac-PL3-Asp-Npg-B6-Asp-3COOHF-Gln-Ala-Phe-Leu-PyrS1-2F3MeF-BztA-Ala-NH2] | 94 |
